Several values for one entry are separate records, joined by “and”; a condition that tells them apart may be missing. Identical values can stand only once. Toxic doses and inconclusive results are not listed. The calls were made as follows: active = survival T/C of 150% or more; inactive = T/C below 125% in these data.
Test system: P388 leukemia ip, CD2F1 mice, survival T/C
Experiment: NCI In Vivo Anticancer Drug Screen. Data for tumor model P388 Leukemia (intraperitoneal) in CD2F1 (CDF1) mice
Conditions: endpoint: median survival time, higher = longer survival
Method in brief: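 Mice carrying the transplanted tumor received test compound or vehicle. Survival was recorded in each group, and the value is the treated-group measurement divided by that of the vehicle-treated control group.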

[1] = dose: 60.0 mg/kg/injection, schedule: Q01DX005 (ip), vehicle: saline
[2] = dose: 120.0 mg/kg/injection, schedule: Q01DX005 (ip), vehicle: saline
[3] = dose: 6.25 mg/kg/injection, schedule: Q01DX009 (ip), vehicle: saline
[4] = dose: 12.5 mg/kg/injection, schedule: Q01DX009 (ip), vehicle: saline
[5] = dose: 25.0 mg/kg/injection, schedule: Q01DX009 (ip), vehicle: saline
[6] = dose: 50.0 mg/kg/injection, schedule: Q01DX009 (ip), vehicle: saline
[7] = dose: 100.0 mg/kg/injection, schedule: Q01DX009 (ip), vehicle: saline with Tween-80
[8] = dose: 150.0 mg/kg/injection, schedule: Q01DX009 (ip), vehicle: saline with Tween-80
[9] = dose: 200.0 mg/kg/injection, schedule: Q01DX009 (ip), vehicle: saline with Tween-80

Measured: T/C

CCN(SSN(CC)S(=O)(=O)c1ccc(C)cc1)S(=O)(=O)c1ccc(C)cc1
inactive: dose: 50.0 mg/kg/injection, schedule: Q01DX005 (ip), vehicle: saline with Tween-80 106 % of control | dose: 100.0 mg/kg/injection, schedule: Q01DX005 (ip), vehicle: saline with Tween-80 107 % of control | dose: 200.0 mg/kg/injection, schedule: Q01DX005 (ip), vehicle: saline with Tween-80 110 % of control

CCC[CH2][Sn]([N]=C=S)([N]=C=S)[N]=C=S.O=P(c1ccccc1)(c1ccccc1)c1ccccc1.O=P(c1ccccc1)(c1ccccc1)c1ccccc1
inactive: dose: 100.0 mg/kg/injection, schedule: Q04DX003 (ip), vehicle: saline 98 % of control | dose: 200.0 mg/kg/injection, schedule: Q04DX003 (ip), vehicle: saline 100 % of control | dose: 400.0 mg/kg/injection, schedule: Q04DX003 (ip), vehicle: saline 99 % of control

CCc1onc(-c2noc(CC)c2C)c1C
inactive: [1] 98 % of control | [2] 104 % of control | dose: 240.0 mg/kg/injection, schedule: Q01DX005 (ip), vehicle: saline 107 % of control

CNC(=O)OCc1nn(-c2ccccc2)c(C)c1COC(=O)NC
inactive: dose: 12.5 mg/kg/injection, schedule: Q01DX009 (ip), vehicle: distilled water + Tween-80 97 % of control | dose: 25.0 mg/kg/injection, schedule: Q01DX009 (ip), vehicle: distilled water + Tween-80 97 % of control | dose: 50.0 mg/kg/injection, schedule: Q01DX009 (ip), vehicle: distilled water + Tween-80 97 % of control | dose: 100.0 mg/kg/injection, schedule: Q01DX009 (ip), vehicle: distilled water + Tween-80 92 % of control | dose: 200.0 mg/kg/injection, schedule: Q01DX009 (ip), vehicle: distilled water + Tween-80 92 % of control

Cc1cccc(C(C#N)C(=O)CCCC(=O)Nc2ccccc2[N+](=O)[O-])c1 (stereo not drawn)
inactive: dose: 60.0 mg/kg/injection, schedule: Q01DX005 (ip), vehicle: saline with Tween-80 98 % of control | dose: 120.0 mg/kg/injection, schedule: Q01DX005 (ip), vehicle: saline with Tween-80 100 % of control | dose: 240.0 mg/kg/injection, schedule: Q01DX005 (ip), vehicle: saline with Tween-80 94 % of control

C=CCc1cc(Nc2c3ccc(Cl)cc3nc3ccc(OC)cc23)cc(CN(CC)CC)c1O
inactive: dose: 3.12 mg/kg/injection, schedule: Q01DX005 (ip), vehicle: Klucel (hydroxypropylcellulose) (HPC) 106 % of control and 110 % of control | dose: 6.0 mg/kg/injection, schedule: Q01DX005 (ip), vehicle: Klucel (hydroxypropylcellulose) (HPC) 118 % of control | dose: 6.25 mg/kg/injection, schedule: Q01DX005 (ip), vehicle: Klucel (hydroxypropylcellulose) (HPC) 109 % of control and 110 % of control | dose: 12.0 mg/kg/injection, schedule: Q01DX005 (ip), vehicle: Klucel (hydroxypropylcellulose) (HPC) 123 % of control

O=NNc1ccc(Sc2ccc3ccccc3c2)cn1
inactive: dose: 3.12 mg/kg/injection, schedule: Q01DX009 (ip), vehicle: saline 114 % of control and 122 % of control | [3] 120 % of control | [4] 114 % of control

CCOC(CCl)OCC
inactive: [3] 103 % of control and 105 % of control

CCN=C(CC(=O)C12CC3CC(CC(C3)C1)C2)N(CC)CC
inactive: [4] 109 % of control | [5] 112 % of control | [6] 100 % of control and 103 % of control

CCOC(=O)C(NC(C)=O)(C(=O)OCC)c1ccc([N+](=O)[O-])cn1
inactive: dose: 25.0 mg/kg/injection, schedule: Q01DX009 (ip), vehicle: other 92 % of control | dose: 50.0 mg/kg/injection, schedule: Q01DX009 (ip), vehicle: other 90 % of control | dose: 100.0 mg/kg/injection, schedule: Q01DX009 (ip), vehicle: other 95 % of control | dose: 200.0 mg/kg/injection, schedule: Q01DX009 (ip), vehicle: other 95 % of control | dose: 400.0 mg/kg/injection, schedule: Q01DX009 (ip), vehicle: other 102 % of control

COC1(CO)C(=O)N(C)CC(=O)N1C (stereo not drawn)
inactive: [1] 106 % of control | [2] 106 % of control

N#Cc1n[nH]c2nc(=S)sc(N)c12
inactive: dose: 100.0 mg/kg/injection, schedule: Q04DX002 (ip), vehicle: water 103 % of control | dose: 200.0 mg/kg/injection, schedule: Q04DX002 (ip), vehicle: water 90 % of control | dose: 400.0 mg/kg/injection, schedule: Q04DX002 (ip), vehicle: water 97 % of control

NC(c1ccccc1)S(=O)(=O)O (stereo not drawn)
inactive: [5] 121 % of control | [6] 121 % of control | dose: 66.7 mg/kg/injection, schedule: Q01DX009 (ip), vehicle: saline with Tween-80 92 % of control | dose: 100.0 mg/kg/injection, schedule: Q01DX001 (ip), vehicle: saline 100 % of control | [7] 88 % of control | dose: 100.0 mg/kg/injection, schedule: Q01DX009 (ip), vehicle: saline 122 % of control | [8] 91 % of control | dose: 200.0 mg/kg/injection, schedule: Q01DX001 (ip), vehicle: saline 100 % of control | dose: 200.0 mg/kg/injection, schedule: Q01DX009 (ip), vehicle: saline 121 % of control | dose: 400.0 mg/kg/injection, schedule: Q01DX001 (ip), vehicle: saline 100 % of control

Cc1ccc(S(=O)(=O)OC2C=CC(=O)C(OC(=O)c3ccccc3)C2OC(=O)c2ccccc2)cc1 (stereo not drawn)
inactive: dose: 50.0 mg/kg/injection, schedule: Q01DX001 (ip), vehicle: saline with Tween-80 102 % of control | dose: 100.0 mg/kg/injection, schedule: Q01DX001 (ip), vehicle: saline with Tween-80 100 % of control | dose: 200.0 mg/kg/injection, schedule: Q01DX001 (ip), vehicle: saline with Tween-80 91 % of control | dose: 400.0 mg/kg/injection, schedule: Q01DX001 (ip), vehicle: saline with Tween-80 98 % of control

CNC(=O)Sc1ccc(Cl)cc1
inactive: dose: 50.0 mg/kg/injection, schedule: Q01DX009 (ip), vehicle: suspension in saline 102 % of control | dose: 100.0 mg/kg/injection, schedule: Q01DX009 (ip), vehicle: suspension in saline 105 % of control | dose: 200.0 mg/kg/injection, schedule: Q01DX009 (ip), vehicle: suspension in saline 113 % of control

O=C(OCC12OC1C(=O)C1OC1C2O)c1ccccc1 (stereo not drawn)
inactive: dose: 1.88 mg/kg/injection, schedule: Q04DX002 (ip), vehicle: saline with Tween-80 104 % of control | dose: 3.75 mg/kg/injection, schedule: Q04DX002 (ip), vehicle: saline with Tween-80 105 % of control | dose: 7.5 mg/kg/injection, schedule: Q04DX002 (ip), vehicle: saline with Tween-80 101 % of control

CCC(/C=C/c1ccc(OC)cc1)=N/Nc1ccccc1
inactive: dose: 30.0 mg/kg/injection, schedule: Q01DX005 (ip), vehicle: other 109 % of control | dose: 60.0 mg/kg/injection, schedule: Q01DX005 (ip), vehicle: other 100 % of control | dose: 120.0 mg/kg/injection, schedule: Q01DX005 (ip), vehicle: other 103 % of control and 109 % of control | dose: 240.0 mg/kg/injection, schedule: Q01DX005 (ip), vehicle: other 113 % of control

CCCCn1c2nc(=O)n(C)c(=O)c-2cc2ccccc21
inactive: dose: 50.0 mg/kg/injection, schedule: Q01DX009 (ip), vehicle: saline with Tween-80 110 % of control and 90 % of control | dose: 66.0 mg/kg/injection, schedule: Q01DX009 (ip), vehicle: saline with Tween-80 103 % of control | [7] 102 % of control | [8] 103 % of control | [9] 120 % of control and 98 % of control

CCCCN(S(=O)(=O)c1ccc(C)cc1)S(=O)(=O)c1ccc(C)cc1
inactive: [7] 120 % of control | [9] 106 % of control | dose: 400.0 mg/kg/injection, schedule: Q01DX009 (ip), vehicle: saline with Tween-80 87 % of control

CC(C)(C)c1ccc(Sc2cccc3c2C(=O)c2c(Sc4cccc(F)c4)cccc2C3=O)cc1
inactive: dose: 100.0 mg/kg/injection, schedule: Q04DX002 (ip), vehicle: saline with Tween-80 99 % of control | dose: 200.0 mg/kg/injection, schedule: Q04DX002 (ip), vehicle: saline with Tween-80 89 % of control | dose: 400.0 mg/kg/injection, schedule: Q04DX002 (ip), vehicle: saline with Tween-80 95 % of control

— PubChem BioAssay AID330 (DTP/NCI, 2004)
